Assay results taken from US20020058288A1, “TOXOPLASMA GONDII GLYCOCONJUGATES” (priority 1995, published 2002).

Test system: Wistaria floribunda agglutinin
Assay: Lectin affinity chromatography on W. floribunda agglutinin agarose
Assay type: binding
Details: elution with 100 mM N-acetylgalactosamine as specific inhibitor, FIG. 7
Method: Lectin affinity chromatography was performed as previously described (Nakano et al., Arch. Biochem. Biophys. 311, 117-126, 1994). Briefly, radiolabeled core glycans derived from glycolipid II, III (core glycan A and B respectively) and rat brain THY1 membrane anchor were applied to a 1 ml column of W. floribunda agglutinin agarose (5 mg lectin/ml gel) equilibrated in 50 mM Tris-HCl, pH 7.4 containing 0.02% sodium azide. Elution was accomplished using 25 ml of equilbration buffer followed by 15 ml of the same buffer containing 100 mM N-acetylgalactosamine as specific inhibitor.
FIG. 7: Analysis of core glycans derived from TLC purified glycolipids labelled with ^3H glucosamine on Wisaria floribunda agglutinin agarose: Core glycan A (A), core glycan (B), Man4GalNAcAHM from rat brain Thy1 anchor (C), arrow indicates buffer change

Man3(GalNAc)AHM [Core glycan A]
Affinity towards W. floribunda agglutinin column: bound to the column
